Experimental data as given in ChEMBL document CHEMBL1201862, “PubChem BioAssay data set” (2004).
The source made the active and inactive calls.

Experiments:
[1] = system: Jurkat; experiment: SAR Analysis of small molecule inhibitors of T-cell specific antigen receptor-induced NF-kB activation in a Jurkat cell line using a luminescence assay - Set 2. [Related pubchem assays (depositor defined):AID435003, AID435012, AID465]; type: functional, cell-based; conditions: Homo sapiens
[2] = system: HEK293; experiment: HEK293T cell viability loss, resazurin readout – resazurin fluorescence, cytotoxicity control for NF-kB activator project, SAR follow-up (AID 493251); type: functional, cell-based; conditions: Homo sapiens
[3] = system: HEK293; experiment: SAR Analysis of small molecule inhibitors of T-cell specific antigen receptor-induced NF-kB activation in a HEK-293T cell line using a luminescence assay - Set 2. [Related pubchem assays (depositor defined):AID435003, AID435012, AID489026]; type: functional, cell-based; conditions: Homo sapiens
[4] = target: Mu-type opioid receptor (Homo sapiens, UniProt P35372); experiment: (§1) Counterscreen for agonists of heterodimerization of the mu 1 (OPRM1) and delta 1 (OPRD1) opioid receptors: Luminescence-based cell-based high throughput dose response assay to identify agonists of OPRM1 homodimerization.; type: functional
[5] = target: Delta-type opioid receptor (Homo sapiens, UniProt P41143); experiment: as §1, with “of OPRD1” for “of OPRM1”, “homodimerization. [Related pubchem assays (depositor defined):AID504326, AID504355, AID504692, AID504904, AID504905]” for “homodimerization.”; type: functional
[6] = target: T1, Short transient receptor potential channel 4 (Mus musculus, UniProt Q9QUQ5); experiment: calcium entry via TRPC4 opening agents – cell-based, HEK293 TRPC4/mu-opioid, Fluo-4 calcium, dose response (AID 434937); type: functional
T1 sequence (Q9QUQ5 whole entry): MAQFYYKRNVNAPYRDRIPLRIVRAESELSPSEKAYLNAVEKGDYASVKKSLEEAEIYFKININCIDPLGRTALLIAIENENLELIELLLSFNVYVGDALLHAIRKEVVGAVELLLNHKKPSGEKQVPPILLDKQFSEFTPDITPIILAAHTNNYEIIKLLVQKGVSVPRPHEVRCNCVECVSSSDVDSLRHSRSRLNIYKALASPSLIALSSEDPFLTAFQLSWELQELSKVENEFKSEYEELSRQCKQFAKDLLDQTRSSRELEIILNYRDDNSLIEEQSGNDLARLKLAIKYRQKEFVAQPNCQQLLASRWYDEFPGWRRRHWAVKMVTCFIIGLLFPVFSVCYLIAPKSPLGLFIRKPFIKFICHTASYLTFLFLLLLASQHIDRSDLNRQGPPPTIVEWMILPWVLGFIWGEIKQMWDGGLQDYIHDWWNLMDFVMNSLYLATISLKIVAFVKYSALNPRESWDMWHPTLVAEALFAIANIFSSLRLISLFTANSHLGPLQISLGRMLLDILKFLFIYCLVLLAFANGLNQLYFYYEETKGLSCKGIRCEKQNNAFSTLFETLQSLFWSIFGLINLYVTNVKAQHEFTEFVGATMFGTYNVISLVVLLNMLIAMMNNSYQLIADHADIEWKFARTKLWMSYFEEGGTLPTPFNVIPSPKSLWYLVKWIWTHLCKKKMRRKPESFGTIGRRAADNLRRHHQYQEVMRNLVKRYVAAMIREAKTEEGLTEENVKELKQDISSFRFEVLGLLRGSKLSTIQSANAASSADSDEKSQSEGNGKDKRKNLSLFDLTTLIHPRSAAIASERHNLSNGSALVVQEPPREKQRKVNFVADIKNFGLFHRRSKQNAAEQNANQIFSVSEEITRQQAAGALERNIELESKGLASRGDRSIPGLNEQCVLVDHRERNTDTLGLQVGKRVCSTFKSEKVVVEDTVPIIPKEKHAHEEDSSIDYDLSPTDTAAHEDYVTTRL

[7] = target: 5-hydroxytryptamine receptor 5A (Homo sapiens, UniProt P47898); experiment: Counterscreen for agonists of OPRM1-OPRD1 heterodimerization: luminescence-based cell-based high throughput dose response assay to identify agonists of 5-hydroxytryptamine (serotonin) 5A receptor (HTR5A). [Related pubchem assays (depositor defined):AID504326, AID504355, AID504692, AID504904, AID504905]; type: functional
[8] = target: T2, Mannose-6-phosphate isomerase (Homo sapiens, UniProt P34949); experiment: MPI inhibition at elevated mannose 6-phosphate – biochemical, fluorescence intensity, high mannose 6-phosphate, primary screen (AID 1220)
T2 sequence (P34949 whole entry): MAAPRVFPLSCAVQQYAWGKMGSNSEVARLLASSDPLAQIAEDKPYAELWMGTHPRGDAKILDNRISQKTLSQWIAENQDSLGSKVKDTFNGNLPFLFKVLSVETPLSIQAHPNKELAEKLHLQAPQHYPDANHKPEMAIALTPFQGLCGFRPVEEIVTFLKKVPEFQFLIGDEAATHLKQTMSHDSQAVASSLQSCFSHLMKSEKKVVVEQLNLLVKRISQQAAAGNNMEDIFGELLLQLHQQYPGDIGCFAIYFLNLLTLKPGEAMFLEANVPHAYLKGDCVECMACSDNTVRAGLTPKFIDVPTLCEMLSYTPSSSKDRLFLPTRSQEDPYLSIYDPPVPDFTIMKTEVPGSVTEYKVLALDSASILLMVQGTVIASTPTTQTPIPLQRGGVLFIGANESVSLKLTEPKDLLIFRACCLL

[9] = target: T3, Tyrosyl-DNA phosphodiesterase 2 (Homo sapiens, UniProt O95551); experiment: potency against TDP2 phosphodiesterase activity – biochemical, epi absorbance, IC50, dose response (AID 743297)
T3 sequence (O95551 whole entry): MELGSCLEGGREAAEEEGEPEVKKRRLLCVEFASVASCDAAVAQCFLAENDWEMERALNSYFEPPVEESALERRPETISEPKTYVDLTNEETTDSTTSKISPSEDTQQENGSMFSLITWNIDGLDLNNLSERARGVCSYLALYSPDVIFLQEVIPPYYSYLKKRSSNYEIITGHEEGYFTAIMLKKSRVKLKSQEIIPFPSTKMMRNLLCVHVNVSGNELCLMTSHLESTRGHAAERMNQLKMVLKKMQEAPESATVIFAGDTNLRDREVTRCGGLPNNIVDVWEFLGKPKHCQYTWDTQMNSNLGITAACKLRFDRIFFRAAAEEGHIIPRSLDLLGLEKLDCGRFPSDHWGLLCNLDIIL

[10] = viability loss of HMLE_sh_eGFP cells – cell-based, luminescence, counter-screen for HMLE_sh_ECad selective toxicity project, dose response (AID 463074); type: functional, Homo sapiens;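 further: HMLE human mammary epithelial cells expressing control shRNA against eGFP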
[11] = Luminescence Cell-Based Dose Retest to Confirm Inhibitors of Cancer Stem Cells. [Related pubchem assays (depositor defined):AID2717, AID2721]; type: functional; conditions: Homo sapiens
[12] = suppression of NO production in INS-1E cells – cell-based, Griess absorbance, dry powder, set 3, dose response (AID 488870); type: functional; conditions: Rattus norvegicus
[13] = target: Dual specificity protein phosphatase 3 (Homo sapiens, UniProt P51452); experiment: SAR VHR1 Fluorescent Assay for In Vitro dose response studies Set 3. [Related pubchem assays (depositor defined):AID1654, AID1661, AID1878]; type: functional
[14] = system: HEK293; experiment: SAR Analysis of small molecule inhibitors of B-cell specific antigen receptor-induced NF-kB activation in a HEK-293T cell line using a luminescence assay - Set 2. [Related pubchem assays (depositor defined):AID435022, AID435025, AID489021]; type: functional, cell-based; conditions: Homo sapiens
[15] = system: Jurkat; experiment: SAR Analysis of small molecule inhibitors of […] specific antigen receptor-induced NF-kB activation in a Jurkat cell line using a luminescence assay - Set 3. [Related pubchem assays (depositor defined):AID435022, AID435025, AID465]; type: functional, cell-based; conditions: Homo sapiens
[16] = Luminescence Cell-Based Dose Response HTS to Identify Inhibitors of 5'UTR Stem-Loop Driven Prion Protein mRNA Translation in H4 Neuroglioblastoma Cells. [Related pubchem assays: 1827 (Project Summary), 1813 (Primary HTS)]; type: functional
[17] = luciferase reporter signal suppression in cells – H4 neuroglioma cells, luminescence, dose response (AID 1990); type: functional, cell-based
[18] = restored growth of temperature-sensitive Burl-1 yeast – whole organism, S. cerevisiae, Burl-1 ts mutant, luminescence, counter-screen for SUMOylation pathway inhibitor project, dose response (AID 463199); type: functional
[19] = alpha-synuclein stem-loop translation blockers – luminescence, H4 neuroglioblastoma cells, dose confirmation, confirmation (AID 2454); type: functional, cell-based;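 further: H4 neuroglioblastoma cells carrying an alpha-synuclein 5'UTR luciferase reporter; potency for inhibition of the luciferase signal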
[20] = luciferase reporter signal reduction – luminescence, H4-C neuroglioblastoma cells, dose response (AID 2458); type: functional, cell-based;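 further: H4 neuroglioblastoma cells stably carrying a luciferase reporter gene fusion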
[21] = alpha-synuclein stem-loop luciferase translation blockers – H4 neuroglioma cells, luminescence, confirmation (AID 1988); type: functional, cell-based
[22] = cells; type: functional, cell-based
[23] = target: T4, Trace amine-associated receptor 1 (Homo sapiens, UniProt Q96RJ0); experiment: Fluorescence-based cell-based high throughput dose response assay to identify agonists of the human trace amine associated receptor 1 (TAAR1).; type: functional
T4 sequence (Q96RJ0 whole entry): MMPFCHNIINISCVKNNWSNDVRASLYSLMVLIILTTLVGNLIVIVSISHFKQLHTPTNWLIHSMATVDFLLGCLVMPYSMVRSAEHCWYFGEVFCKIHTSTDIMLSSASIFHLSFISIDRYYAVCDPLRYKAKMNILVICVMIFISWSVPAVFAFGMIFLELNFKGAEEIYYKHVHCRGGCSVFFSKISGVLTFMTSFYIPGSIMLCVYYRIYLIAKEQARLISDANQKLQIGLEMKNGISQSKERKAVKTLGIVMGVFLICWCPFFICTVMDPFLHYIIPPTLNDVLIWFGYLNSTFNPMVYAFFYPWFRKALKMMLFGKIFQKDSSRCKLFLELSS

[24] = cells; type: functional, cell-based; remark: listed apart in the source
[25] = system: Vero; experiment: cells; type: functional, cell-based; conditions: Chlorocebus sabaeus
[26] = cells; type: functional, cell-based; remark: listed apart in the source
[27] = target: T4, Trace amine-associated receptor 1; experiment: Counterscreen for agonists of the human trace amine associated receptor 1 (hTAAR1): Fluorescence-based cell-based high throughput dose response assay to identify hTAAR1 agonist that also desensitize TAAR1 receptor response.; type: functional

Sequence of Delta-type opioid receptor (P41143 whole entry): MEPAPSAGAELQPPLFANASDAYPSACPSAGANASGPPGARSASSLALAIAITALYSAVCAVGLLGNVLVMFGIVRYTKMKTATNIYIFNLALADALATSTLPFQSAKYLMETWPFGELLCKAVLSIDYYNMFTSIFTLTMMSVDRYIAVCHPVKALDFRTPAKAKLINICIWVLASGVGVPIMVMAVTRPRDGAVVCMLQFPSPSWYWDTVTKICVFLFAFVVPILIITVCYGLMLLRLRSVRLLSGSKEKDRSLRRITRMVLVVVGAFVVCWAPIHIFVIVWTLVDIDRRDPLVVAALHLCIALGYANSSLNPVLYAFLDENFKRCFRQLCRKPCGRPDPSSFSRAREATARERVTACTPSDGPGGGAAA
Sequence of Dual specificity protein phosphatase 3 (P51452 whole entry): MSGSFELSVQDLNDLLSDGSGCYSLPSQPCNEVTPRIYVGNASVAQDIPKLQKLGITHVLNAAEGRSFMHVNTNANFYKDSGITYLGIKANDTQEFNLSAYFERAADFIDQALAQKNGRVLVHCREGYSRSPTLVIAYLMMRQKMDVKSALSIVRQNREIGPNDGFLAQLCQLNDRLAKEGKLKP
Sequence of Mu-type opioid receptor (P35372 whole entry): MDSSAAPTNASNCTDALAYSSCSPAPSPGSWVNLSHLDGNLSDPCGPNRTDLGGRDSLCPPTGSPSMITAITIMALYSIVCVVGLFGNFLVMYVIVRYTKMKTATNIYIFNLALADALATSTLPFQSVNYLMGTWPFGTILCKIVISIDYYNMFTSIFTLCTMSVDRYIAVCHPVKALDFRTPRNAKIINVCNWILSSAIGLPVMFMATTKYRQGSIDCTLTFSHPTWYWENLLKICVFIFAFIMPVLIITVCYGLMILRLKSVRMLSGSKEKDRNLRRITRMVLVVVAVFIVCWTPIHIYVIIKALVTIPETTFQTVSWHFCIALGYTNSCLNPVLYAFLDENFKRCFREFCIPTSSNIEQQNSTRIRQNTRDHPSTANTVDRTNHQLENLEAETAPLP
Sequence of 5-hydroxytryptamine receptor 5A (P47898 whole entry): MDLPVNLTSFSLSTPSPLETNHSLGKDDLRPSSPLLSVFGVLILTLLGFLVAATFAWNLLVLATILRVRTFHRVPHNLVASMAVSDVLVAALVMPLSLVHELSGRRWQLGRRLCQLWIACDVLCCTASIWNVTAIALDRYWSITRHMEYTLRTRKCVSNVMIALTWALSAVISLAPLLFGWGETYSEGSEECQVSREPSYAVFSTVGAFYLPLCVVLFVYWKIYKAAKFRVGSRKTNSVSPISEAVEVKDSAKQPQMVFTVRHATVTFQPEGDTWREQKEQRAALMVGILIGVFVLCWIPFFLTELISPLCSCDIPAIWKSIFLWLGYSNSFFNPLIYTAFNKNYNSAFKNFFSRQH

## CC(=O)N1CCc2cc(NC(=O)c3ccc([N+](=O)[O-])o3)ccc21
[1]
  IC50: 49.5 µM (inactive)
[2]
  IC50: > 80 µM (inactive)
[3]
  IC50: 50.5 µM (inactive)

## OCC1(CCc2ccccc2)CCN(Cc2cccn2-c2cccnc2)CC1
[4]
  EC50: 52.6 µM (inactive)
[5]
  EC50: > 92.5 µM (inactive)
[6]
  EC50: 0.149 µM (active)
[7]
  EC50: > 92.5 µM (inactive)

## Oc1c(/C=N/c2cccc3nsnc23)ccc2ccccc12
[8]
  IC50: > 50 µM (not active)
[9]
  IC50: 80.5 µM (inactive)
[10]
  AC50: 29.4 µM (active)
[11]
  AC50: 23.7 µM (active)

## COc1ccc(NC(=O)N(C)C[C@@H]2Oc3c(NC(=O)Nc4cccc5ccccc45)cccc3C(=O)N([C@@H](C)CO)C[C@H]2C)cc1
[12]
  AC50: 43.7 µM (active)

## COc1ccc(-c2nnc(Nc3nc4c(F)cccc4s3)o2)cc1
[13]
  IC50: 3.71 µM (active)

## CCOc1ccc(-c2nc(CSCC(=O)NCCOC)c(C)o2)cc1
[14]
  IC50: > 80 µM (inactive)
[2]
  IC50: > 80 µM (inactive)
[15]
  IC50: > 80 µM (inactive)

## COc1ccc2cc3c(N)nn(C(=O)c4ccccc4Cl)c3nc2c1
[16]
  EC50: < 0.1 µM (active)
[17]
  EC50: < 0.1 µM (active)
[18]
  AC50: 47.8 µM (active)
[19]
  EC50: > 12 µM (not active)
[20]
  EC50: 1.43 µM (active)
[21]
  EC50: 9.14 µM (active)
[22]
  EC50: 0.736 µM (active)

## CCCCOc1ccc(C(=O)Nc2ccc(N3CCN(C)CC3)cc2)cc1
[23]
  EC50: 10.2 µM (inactive)
[24]
  EC50: > 29.9 µM (inactive)
[25]
  IC50: 24.8 µM (active)
[26]
  IC50: > 29.9 µM (inactive)
[27]
  IC50: > 29.9 µM (inactive)
